Results taken from patent US12011469B2, “Parenteral delivery device and methods of use” (Vireo Systems, Inc., priority 2017, dated 2024).

How the values were obtained:
[1] = test system: Lactobacilli; details: 60 mg hydrogen borate in well, LB-agar, overnight; Lactobacilli added one hour or 12 hours after hydrogen borate
Description: Lactobacillus capsular material (40 mg) was suspended in 1.0 milliliter of LB-broth and 25 microliters was spread on the surface of half of an LB-agar plate. For comparison, the other half of the plate spread with C. albicans. A hole was punched in the middle of the plate and 60 mg of hydrogen borate was added. The plates were incubated overnight and scored for growth and/or a zone of inhibition around the hydrogen borate well.
In some cases, only about a quarter of the LB-agar plate was spread with the L-capsular suspension in which case only 10 microliters was used.

[2] = test system: Candida albicans, ATTC number 10231; assay: microbe, parasite or virus in culture; details: read-out: zone of inhibition against the yeast, Candida albicans
Description: Candida albicans, ATTC number 10231, was used as a test organism. Cultures of C. albicans were grown in a rotator overnight at room temperature in tubes of LB-broth. The cultures contained approximately 1×10^8 organisms per mL. The suspension was diluted 1:1000 in LB-broth and 50 microliters were spread on the surface of a LB-agar plate, i.e., approximately 5,000 organisms.

[3] = test system: co-cultures of C. albicans and Lactobacilli; details: Lactobacilli added dropwise immediately after C. albicans was spread onto the plate
Source text: In some cases, the C. albicans was co-cultured with the Lactobacilli. For this inoculum, equal volumes of the two suspensions of organisms described earlier were mixed and used to spread on LB-agar plates for testing for any effect of the co-culture on the anti-yeast activity of hydrogen borate or any effect on Lactobacillus growth.

SMILES: OB(O)O [hydrogen borate]
- effect on the growth of Lactobacilli [1]: did not have an effect
- zone of inhibition at 60000 µg/disc [2]: 45 mm
- effect of co-culture on the anti-yeast activity of hydrogen borate [3]: did not affect the activity
